Measurements published in patent US11446287B2, “Compounds and methods for EP300 or CBP modulation and indications therefor” (Opna Immuno-Oncology SA, priority 2019, dated 2022).

Molecular target: T1, Recombinant human BRD4 containing dual bromodomains (BRD4-BD12 (1-477)) (Homo sapiens, UniProt O60885)
T1 construct: Recombinant human BRD4 containing dual bromodomains (BRD4-BD12 (1-477)); made in house; host or cells: E. coli BL21-CodonPlus (DE3), modified pET vector
Test: BRD4 Alphascreen binding assay
In short: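 AlphaScreen proximity between Ni-chelate-bound BRD4-BD12 (1-477) and streptavidin-captured H4 K5/K8/K12/K16-acetyl peptide measured after 1 h room-temperature compound incubation and 30 min with 7.5 μg/ml beads. Buffer: 50 mM HEPES pH 7.5, 50 mM NaCl, 0.01% BSA, 0.01% Triton X-100; data plate-normalized and four-parameter fit for IC50.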

`Cc1noc(C)c1-c1cnc2c(c1)c(-c1cnn(C(C)(C)C(=O)O)c1)cn2C(c1ccccn1)C1CCCC1` (stereo not drawn) [P-0035, 2-(4-(1-(cyclopentyl(pyridin-2-yl)methyl)-5-(3,5-dimethylisoxazol-4-yl)-1H-pyrrolo[2,3-b]pyridin-3-yl)-1H-pyrazol-1-yl)-2-methylpropanoic acid] and `Cc1noc(C)c1-c1cnc2c(c1)c(-c1cnn(CC(C)(C)O)c1)cn2C(c1ccccn1)C1CCCC1` (stereo not drawn) [P-0037, 1-(4-(1-(cyclopentyl(pyridin-2-yl)methyl)-5-(3,5-dimethylisoxazol-4-yl)-1H-pyrrolo[2,3-b]pyridin-3-yl)-1H-pyrazol-1-yl)-2-methylpropan-2-ol] fall in the same range of IC50: 1 to 8 µM for the first, 1 to 8 µM for the second.

`Cc1noc(C)c1-c1cnc2c(c1)c(-c1cnn(CC(=O)O)c1)cn2C(c1ccccn1)C1CCCC1` (stereo not drawn) [P-0036, 2-(4-(1-(cyclopentyl(pyridin-2-yl)methyl)-5-(3,5-dimethylisoxazol-4-yl)-1H-pyrrolo[2,3-b]pyridin-3-yl)-1H-pyrazol-1-yl)acetic acid] and `Cc1noc(C)c1-c1cnc2c(c1)c(-c1ccc(C(=O)O)c(Cl)c1)cn2C(c1ccccn1)C1CCCC1` (stereo not drawn) [P-0038, 2-chloro-4-(1-(cyclopentyl(pyridin-2-yl)methyl)-5-(3,5-dimethylisoxazol-4-yl)-1H-pyrrolo[2,3-b]pyridin-3-yl)benzoic acid] fall in the same range of IC50: 1 to 8 µM for the first, 1 to 8 µM for the second.

First: COC(=O)c1cc(-c2cn(C(c3ccccn3)C3CCCC3)c3ncc(-c4c(C)noc4C)cc23)ccn1 (stereo not drawn) [P-0040, methyl 4-(1-(cyclopentyl(pyridin-2-yl)methyl)-5-(3,5-dimethylisoxazol-4-yl)-1H-pyrrolo[2,3-b]pyridin-3-yl)picolinate]
Second: COC(=O)c1cc(-c2cn(C(c3ccccn3)C3CCC3)c3ncc(-c4c(C)noc4C)cc23)ccn1 (stereo not drawn) [P-0046, methyl 4-(1-(cyclobutyl(pyridin-2-yl)methyl)-5-(3,5-dimethylisoxazol-4-yl)-1H-pyrrolo[2,3-b]pyridin-3-yl)picolinate]
The IC50 of the first is lower: 1 to 8 µM for the first, 8 to 1000 µM for the second.

`Cc1noc(C)c1-c1cnc2c(c1)c(-c1ccnc(C(=O)O)c1)cn2C(C1CC1)C1CC1` [P-0041, 4-(1-(dicyclopropylmethyl)-5-(3,5-dimethylisoxazol-4-yl)-1H-pyrrolo[2,3-b]pyridin-3-yl)picolinic acid] and `Cc1noc(C)c1-c1cnc2c(c1)c(-c1ccnc(C(=O)O)c1)cn2CC1CC1` [P-0045, 4-(1-(cyclopropylmethyl)-5-(3,5-dimethylisoxazol-4-yl)-1H-pyrrolo[2,3-b]pyridin-3-yl)picolinic acid] fall in the same range of IC50: 0.0001 to 1 µM for the first, 0.0001 to 1 µM for the second.

`Cc1noc(C)c1-c1cnc2c(c1)c(-c1ccnc(C(=O)O)c1)cn2Cc1ccccc1` [P-0042, 4-(1-benzyl-5-(3,5-dimethylisoxazol-4-yl)-1H-pyrrolo[2,3-b]pyridin-3-yl)picolinic acid] and `Cc1noc(C)c1-c1cnc2c(c1)c(-c1ccnc(C(=O)O)c1)cn2Cc1ccccn1` [P-0044, 4-(5-(3,5-dimethylisoxazol-4-yl)-1-(pyridin-2-ylmethyl)-1H-pyrrolo[2,3-b]pyridin-3-yl)picolinic acid] fall in the same range of IC50: 0.0001 to 1 µM for the first, 0.0001 to 1 µM for the second.

`Cc1noc(C)c1-c1cnc2c(c1)c(-c1ccnc(C(=O)O)c1)cn2C(c1ccccn1)C1CCC1` (stereo not drawn) [P-0043, 4-(1-(cyclobutyl(pyridin-2-yl)methyl)-5-(3,5-dimethylisoxazol-4-yl)-1H-pyrrolo[2,3-b]pyridin-3-yl)picolinic acid] and `COc1cc(C(=O)O)ccc1-c1cn([C@@H](C)c2ccccn2)c2ncc(-c3c(C)noc3C)cc12` [P-0047, (S)-4-(5-(3,5-dimethylisoxazol-4-yl)-1-(1-(pyridin-2-yl)ethyl)-1H-pyrrolo[2,3-b]pyridin-3-yl)-3-methoxybenzoic acid] fall in the same range of IC50: 1 to 8 µM for the first, 1 to 8 µM for the second.

Compared with `Cc1noc(C)c1-c1cnc2c(c1)c(-c1cccc(C(=O)O)c1)cn2Cc1ccccc1` [P-0048, 3-(1-benzyl-5-(3,5-dimethylisoxazol-4-yl)-1H-pyrrolo[2,3-b]pyridin-3-yl)benzoic acid], `Cc1noc(C)c1-c1cnc2c(c1)c(-c1cccc(C(=O)O)c1)cn2Cc1ccccn1` [P-0049, 3-(5-(3,5-dimethylisoxazol-4-yl)-1-(pyridin-2-ylmethyl)-1H-pyrrolo[2,3-b]pyridin-3-yl)benzoic acid] is higher in IC50: 1 to 8 µM for the first, 8 to 1000 µM for the second.

First: Cc1noc(C)c1-c1cnc2c(c1)c(-c1cccc(C(=O)O)c1)cn2CC1CC1 [P-0050, 3-(1-(cyclopropylmethyl)-5-(3,5-dimethylisoxazol-4-yl)-1H-pyrrolo[2,3-b]pyridin-3-yl)benzoic acid]
Second: Cc1noc(C)c1-c1cnc2c(c1)c(-c1ccc(C(=O)O)cc1OC(F)(F)F)cn2C1CCC(C#N)C1 (stereo not drawn) [P-0389, 4-(1-(3-cyanocyclopentyl)-5-(3,5-dimethylisoxazol-4-yl)-1H-pyrrolo[2,3-b]pyridin-3-yl)-3-(trifluoromethoxy)benzoic acid]
The IC50 of the first is higher: 8 to 1000 µM for the first, 1 to 8 µM for the second.

Compared with `Cc1noc(C)c1-c1cnc2c(c1)c(C#CC(C)(C)C(=O)O)cn2Cc1ccccc1` [P-0051, 4-(1-benzyl-5-(3,5-dimethylisoxazol-4-yl)-1H-pyrrolo[2,3-b]pyridin-3-yl)-2,2-dimethylbut-3-ynoic acid], `Cc1noc(C)c1-c1cnc2c(Cc3ccccc3)cn(-c3ccnc(C(=O)O)c3)c2c1` [P-0053, 4-(3-benzyl-6-(3,5-dimethylisoxazol-4-yl)-1H-pyrrolo[3,2-b]pyridin-1-yl)picolinic acid] is lower in IC50: 8 to 1000 µM for the first, 1 to 8 µM for the second.

First: COC(=O)c1cc(-n2cc(Cc3ccccc3)c3ncc(-c4c(C)noc4C)cc32)ccn1 [P-0052, methyl 4-(3-benzyl-6-(3,5-dimethylisoxazol-4-yl)-1H-pyrrolo[3,2-b]pyridin-1-yl)picolinate]
Second: Cc1noc(C)c1-c1cnc2c(C(=O)c3ccccc3)cn(-c3ccnc(C(=O)O)c3)c2c1 [P-0054, 4-(3-benzoyl-6-(3,5-dimethylisoxazol-4-yl)-1H-pyrrolo[3,2-b]pyridin-1-yl)picolinic acid]
The IC50 of the first is higher: 1 to 8 µM for the first, 0.0001 to 1 µM for the second. The second is the more potent here.

`Cc1noc(C)c1-c1cnc2c(c1)c(-c1ccc(C(=O)O)cc1OC(F)(F)F)cn2-c1ccc(C2CC2)nc1` [P-0388, 4-(1-(6-cyclopropylpyridin-3-yl)-5-(3,5-dimethylisoxazol-4-yl)-1H-pyrrolo[2,3-b]pyridin-3-yl)-3-(trifluoromethoxy)benzoic acid] and `COc1ncc(-n2cc(-c3ccc(C(=O)O)cc3OC(F)(F)F)c3cc(-c4c(C)noc4C)cnc32)cn1` [P-0392, 4-(5-(3,5-dimethylisoxazol-4-yl)-1-(2-methoxypyrimidin-5-yl)-1H-pyrrolo[2,3-b]pyridin-3-yl)-3-(trifluoromethoxy)benzoic acid] fall in the same range of IC50: 1 to 8 µM for the first, 1 to 8 µM for the second.

`Cc1noc(C)c1-c1cnc2c(c1)c(-c1c(Cl)cc(C(=O)O)cc1OCC(F)F)cn2-c1cnc(C2CC2)nc1` [P-0390, 3-chloro-4-(1-(2-cyclopropylpyrimidin-5-yl)-5-(3,5-dimethylisoxazol-4-yl)-1H-pyrrolo[2,3-b]pyridin-3-yl)-5-(2,2-difluoroethoxy)benzoic acid] and `Cc1noc(C)c1-c1cnc2c(c1)c(-c1c(Cl)cc(C(=O)O)cc1OC1CCC1)cn2-c1cnc(C2CC2)nc1` [P-0391, 3-chloro-5-cyclobutoxy-4-(1-(2-cyclopropylpyrimidin-5-yl)-5-(3,5-dimethylisoxazol-4-yl)-1H-pyrrolo[2,3-b]pyridin-3-yl)benzoic acid] fall in the same range of IC50: 1 to 8 µM for the first, 1 to 8 µM for the second.
